The target of one data set is T1, HuR-mRNA interaction (Homo sapiens, UniProt Q15717).
T1 construct: made in house; host or cells: HEK293T cells
As to the kind of experiment: AlphaScreen assay, inhibition of HuR-mRNA interaction. The class given is binding. The settings on record: for IC50: rHuR and biotinylated RNA probe. The protocol: The full encoding sequence for human HuR/ELAVL1 gene (NM001419) has been amplified from cDNA obtained by retro-transcription from RNA of MCF7 cells and inserted into the pCMV6-AC-Myc-His PrecisionShuttle vector (Origene Technologies). The pCMV6-HuR recombinant vector has been transfected into HEK293T cells by using the transfection reagent Lipofectamine® 2000 (Life Technologies) according to the manufacturer protocol. HEK293T cells have been cultured in a complete medium (10% DMEM, 10% FBS, 2 mM Glutamine, 100 units/ml penicillin+100 μg/ml streptomycin) in humidified 5% CO2 atmosphere at 37° C.
Two types of assay have been performed, in order to define the profile of the aza-tanshinones and their inhibitory activity. REMSA (RNA-EMSA, RNA electrophoresis mobility shift assay) in 5% polyacrylamide gel requires the use of a RNA fluorescent probe (5′-Cy3-[…]), while the AlphaScreen assay required a RNA 5′-biotinylated probe (BiTNF, 5′-[…]). […] IC50 values have been obtained by means of non-linear regression of the fit of the log(dose) response by using the same software.
For orientation: Alpha assays give light when donor and acceptor beads are brought close together.

A short description of data set [1]: alamar Blue viability assay. The settings on record: human, 24 hours, vs DMSO. The data set is classed as cell-based. The procedure:
(§1) Tumor cell lines of metastatic breast cancer (MDA-MB-231), breast cancer (MCF7), human monocytic leukemia (THP-1) and pancreatic carcinoma (PANC-1) have been cultured in a complete DMEM or RPMI 1640 (Gibco Life Technologies) supplemented with 10% fetal bovine serum (FBS, Lonza), 2 mM L-glutamine and 100 U/ml penicillin-streptomycin (Lonza). The cell lines have been cultured at 37° C. in 5% CO2 and have been regularly tested for Mycoplasma contamination. The viability has been measured by means of alamar Blue assay (Thermo Fisher) under treatment for 24 hours with nanomolar to micromolar doses of aza-tanshinones. The mean viability and the standard deviation (SD) per each test compound have been obtained from the dose-response curves for triple doses (0.01, 0.1, 1. 10. 50 μM) in comparison with the control vehicle (DMSO).
(§2) The group of cell lines used in Paragraph 8.2, with the addition of the tumor cell lines of the metastatic breast cancer SK-BR-3 and of the colon adenocarcinoma SW-480, has been used to measure the IC50/cytotoxicity potency of compound 26. The viability assays have been performed as shown in Paragraph 8.2.
A general note: Resazurin is reduced to fluorescent resorufin, in cell work by metabolically active cells.

Data set [2] in a line: alamar Blue viability assay. Conditions: human, THP-1 cells (monocytic leukemia), 24 hours, vs DMSO; for viability at 24 h, 10 µM: THP1, 10 μM; for viability at 24 h, 50 µM: THP1, 50 μM. The class given is cell-based, human. The protocol: as §1, §2
The subject of another data set is MDA-MB-231. The experiment in a line: alamar Blue viability assay. The data set is classed as cell-based. The settings on record: 24 hours, vs DMSO. The procedure:
as §1, §2

A further data set has as its system PANC-1. The experiment in a line: alamar Blue viability assay. The data set is classed as cell-based. The settings on record: 24 hours, vs DMSO. The protocol: as §1, §2
In the next data set the test system is MCF7. As to the kind of experiment: alamar Blue viability assay. The class given is cell-based. The settings on record: 24 hours, vs DMSO. The procedure:
as §1, §2

In a further data set the test system is THP-1. The experiment in a line: alamar Blue viability assay. The data set is classed as cell-based, human. Conditions: for Viability: 24 hours, vs DMSO. The procedure: as §1, §2
The mark [3] stands for this setting: MCF7 cells (breast cancer), MCF7, 10 μM.
Setting [4] is: MCF7 cells (breast cancer), MCF7, 50 μM.
Where [5] appears, read: MDA-MB-231 cells (metastatic breast cancer), MDA-MB-231, 10 μM.
The mark [6] stands for this setting: MDA-MB-231 cells (metastatic breast cancer), MDA-MB-231, 50 μM.
Where [7] appears, read: PANC-1 cells (pancreatic carcinoma), PANC-1, 10 μM.
[8] abbreviates: PANC-1 cells (pancreatic carcinoma), PANC-1, 50 μM.

T1 sequence (Q15717 whole entry): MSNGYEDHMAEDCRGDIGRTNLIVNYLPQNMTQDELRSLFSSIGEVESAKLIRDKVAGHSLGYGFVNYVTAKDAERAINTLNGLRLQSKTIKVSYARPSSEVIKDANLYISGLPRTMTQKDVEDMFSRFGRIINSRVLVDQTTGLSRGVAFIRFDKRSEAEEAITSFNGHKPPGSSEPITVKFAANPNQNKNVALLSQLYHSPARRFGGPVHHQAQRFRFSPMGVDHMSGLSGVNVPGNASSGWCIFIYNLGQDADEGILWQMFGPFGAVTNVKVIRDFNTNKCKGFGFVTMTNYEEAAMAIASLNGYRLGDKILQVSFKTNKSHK

As usually defined, the IC50 is the concentration at which inhibition is half-maximal. A higher IC50 goes with lower potency. By viability is commonly meant a read-out of living cells in per cent, often relative to untreated cells. On HuR-mRNA interaction, `O=C1C=Cc2c(c(-c3ccccc3)cn2S(=O)(=O)c2ccc([N+](=O)[O-])cc2)C1=O` [Compound 23, 1-(p-Nitrophenylsulfonyl)-3-phenyl-4,5-dioxo indole] came in with an IC50 of 241 ± 42 nM. Moreover, the viability at 24 h, 10 µM in data set [1] (setting [3]) amounted to 100%; in data set [1] (setting [5]), 104%; in data set [1] (setting [7]), 92%; in data set [2], 98%. The viability at 24 h, 50 µM was found to be 66% in data set [1] (setting [4]), 80% in data set [1] (setting [6]), 36% in data set [1] (setting [8]) and 31% in data set [2].

On HuR-mRNA interaction, `O=C1C=Cc2c(c(-c3ccccc3)cn2S(=O)(=O)c2cccc([N+](=O)[O-])c2)C1=O` [Compound 24, 1-(m-Nitrophenylsulfonyl)-3-phenyl-4,5-dioxoindole] displayed an IC50 of 342 ± 64 nM. The viability at 24 h, 10 µM in data set [1] (setting [3]) was 100%; in data set [1] (setting [5]) it was 94%; in data set [1] (setting [7]) it was 91%; in data set [2] it was 100%. Besides, the viability at 24 h, 50 µM in data set [1] (setting [4]) came to 54%; in data set [1] (setting [6]), 36%; in data set [1] (setting [8]) it was 20%; in data set [2] it was 27%.

Turning to `O=C1C=Cc2c(c(-c3ccccc3)cn2S(=O)(=O)c2ccc(F)cc2)C1=O` [Compound 25, 1-(p-Fluorophenylsulfonyl)-3-phenyl-4,5-dioxo indole], the viability at 24 h, 10 µM came out at 100% in data set [1] (setting [3]), 103% in data set [1] (setting [5]), 100% in data set [1] (setting [7]) and 100% in data set [2]. For the same compound, the viability at 24 h, 50 µM in data set [1] (setting [4]) came to 63%; in data set [1] (setting [6]), 50%; in data set [1] (setting [8]) it was 29%; in data set [2], 35%.

`O=C1C=Cc2c(c(-c3ccccc3)cn2S(=O)(=O)c2cccc(F)c2)C1=O` [Compound 27, 1-(m-Fluorophenylsulfonyl)-3-phenyl-4,5-dioxo indole] displayed an IC50 against HuR-mRNA interaction of 251 ± 31 nM. The viability at 24 h, 10 µM in data set [1] (setting [3]) turned out to be 108%; in data set [1] (setting [5]), 103%; in data set [1] (setting [7]) it was 102%; in data set [2], 83%. The viability at 24 h, 50 µM amounted to 79% in data set [1] (setting [4]), 51% in data set [1] (setting [6]), 20% in data set [1] (setting [8]) and 32% in data set [2].

`COc1ccc(-c2cn(S(=O)(=O)c3ccccc3)c3c2C(=O)C(=O)C=C3)cc1` [Compound 28, 1-phenylsulfonyl-3-(p-methoxyphenyl)-4,5-dioxo indole] registered an IC50 against HuR-mRNA interaction of 287 ± 30 nM. For the same compound, the viability at 24 h, 10 µM in data set [1] (setting [3]) amounted to 91%; in data set [1] (setting [5]) it was 106%; in data set [1] (setting [7]), 90%; in data set [2], 105%. Also, the viability at 24 h, 50 µM came out at 75% in data set [1] (setting [4]), 57% in data set [1] (setting [6]), 32% in data set [1] (setting [8]) and 46% in data set [2].

As to `COc1cccc(-c2cn(S(=O)(=O)c3ccccc3)c3c2C(=O)C(=O)C=C3)c1` [Compound 29, 1-Phenylsulfonyl-3-(m-methoxyphenyl)-4,5-dioxoindole], on HuR-mRNA interaction, the IC50 came to 352 ± 57 nM.

Turning to `O=C1C(=O)c2c(-c3ccccc3)cn(S(=O)(=O)c3ccccc3)c2C2=C1C1CCC2CC1` [Compound 32, 3-Phenyl-1-phenylsulfonyl-4,5-dioxo-6,9-ethanbenzo[g]indole], half-maximal inhibition against HuR-mRNA interaction (IC50) required 121 ± 55 nM. The Viability in the data set on MDA-MB-231 (MDA-MB-231, 10 μM) amounted to 1.00; with MDA-MB-231 (MDA-MB-231, 50 μM) it was 0.28; with PANC-1 (PANC-1, 10 μM) it was 0.85; in the data set on PANC-1 (PANC-1, 50 μM), 0.15; in the data set with MCF7 (MCF7, 10 μM), 1.09; in the data set on MCF7 (MCF7, 50 μM) it was 0.14. Also, the Viability in the data set on THP-1 (THP1, 10 μM) was 0.55; with THP-1 (THP1, 50 μM), 0.00. The cell death result with THP-1 (THP-1 cells, 10 μM) is “greater than 20%”.

As usually defined, the Ki is a measure of affinity in units of concentration, obtained from inhibition or displacement. In the case of `Cc1cccc2c3c(ccc12)C1=C(C(=O)C3=O)[C@@H](C)CO1` [DHTS, Dihydrotanshinone, reference compound], the Ki at HuR-mRNA interaction (1-site competition model, RNA 50 nM, Kd 2.5 nM, read-out: Complete Ki) amounted to 3.74 ± 1.63 nM. This compound gave a half-maximal inhibitory concentration (IC50) on HuR-mRNA interaction of 149 ± 34 nM.

The record behind these values is patent publication US10689342B2, “Aza-tanshinone derivatives, process for their preparation and their use in therapy” (UNIVERSITA' DEGLI STUDI DI MILANO, priority 2016, dated 2020).
